Data from ChEMBL document CHEMBL4152199, “Discovery of 6-chloro-2-(propylthio)-8,9-dihydro-7H-purines containing a carboxamide moiety as potential selective anti-lung cancer agents” (Eur J Med Chem, 2018).
Calls of active or inactive are those of the source. The rule behind the calls is not given here.

What was measured:
MGC-803 = assay: Antiproliferative activity against human MGC803 cells after 72 hrs by MTT assay; assay type: functional, cell-based; details: MGC-803, 72 h
PC-3 = assay: Antiproliferative activity against human PC3 cells after 72 hrs by MTT assay; assay type: functional, cell-based; details: PC-3, 72 h
TE-1 = assay: Antiproliferative activity against human TE1 cells after 72 hrs by MTT assay; assay type: functional, cell-based; details: TE-1, 72 h
A549 [1] = assay: Antiproliferative activity against human A549 cells after 72 hrs by MTT assay; assay type: functional, cell-based; details: A549, 72 h
GES1 = assay: Antiproliferative activity against human GES-1 cells after 72 hrs by MTT assay; assay type: cell-based; details: GES1, 72 h
A549 [2] = assay: Induction of apoptosis in human A549 cells after 72 hrs by Annexin-V-FITC/propidium iodide staining based flow cytometric analysis; assay type: functional, cell-based
A549 [3] = assay: Induction of apoptosis in human A549 cells assessed as cell rounding at 2 uM after 72 hrs by Hoechst 33258 staining based fluorescence microscopic method; assay type: functional
A549 [4] = assay: Induction of apoptosis in human A549 cells assessed as increase in Bax level up to 2 uM after 72 hrs by Western blot analysis; assay type: functional, cell-based
A549 [5] = assay: Anticlonogenic activity against human A549 cells after 10 days by crystal violet staining based assay; assay type: functional, cell-based
A549 [6] = assay: Anticlonogenic activity against human A549 cells at 1 uM after 10 days by crystal violet staining based assay relative to control; assay type: functional
A549 [7] = assay: Downregulation of N-cadherin expression in human A549 cells up to 2 uM after 72 hrs by Western blot analysis; assay type: functional, cell-based
A549 [8] = assay: Induction of apoptosis in human A549 cells assessed as chromatin shrinkage at 2 uM after 72 hrs by Hoechst 33258 staining based fluorescence microscopic method; assay type: functional, cell-based
A549 [9] = assay: Downregulation of vimentin expression in human A549 cells up to 2 uM after 72 hrs by Western blot analysis; assay type: functional, cell-based
A549 [10] = assay: Up regulation of E-cadherin expression in human A549 cells up to 2 uM after 72 hrs by Western blot analysis; assay type: functional, cell-based
A549 [11] = assay: Antimigratory activity in human A549 cells after 72 hrs by inverted microscopic based wound healing assay; assay type: functional, cell-based
A549 [12] = assay: Antimigratory activity in human A549 cells after 72 hrs by Hoechst 33258 staining based transwell assay; assay type: functional, cell-based
[13] = Selectivity index, ratio of IC50 for human GES-1 cells to IC50 for human A549 cells; assay type: toxicity; details: GES-1 cells versus A549 cells, read-out: Ratio IC50
A549 [14] = assay: Antiinvasive activity in human A549 cells after 72 hrs by Hoechst 33258 staining based matrigel assay; assay type: functional, cell-based
A549 [15] = assay: Induction of apoptosis in human A549 cells assessed as reduction in Bcl-2 level up to 2 uM after 72 hrs by Western blot analysis; assay type: functional, cell-based
A549 [16] = assay: Induction of apoptosis in human A549 cells assessed as induction of apoptotic bodies at 2 uM after 72 hrs by Hoechst 33258 staining based fluorescence microscopic method; assay type: functional, cell-based

## CCCSc1nc(Cl)c2c(n1)N(Cc1ccccc1)C(C(=O)N1CCSCC1)N2 (configuration not stated)
MGC-803
  IC50: 31.3 µM
PC-3
  IC50: 47.9 µM
TE-1
  IC50: 47.8 µM
A549 [1]
  IC50: > 64 µM

## CCCSc1nc(Cl)c2c(n1)N(Cc1ccccc1)C(C(=O)NCCc1c[nH]c3ccccc13)N2 (configuration not stated)
MGC-803
  IC50: 27 µM
PC-3
  IC50: > 64 µM
TE-1
  IC50: 30 µM
A549 [1]
  IC50: 48.8 µM

## CCCSc1nc(Cl)c2c(n1)N(Cc1ccccc1)C(C(=O)O)N2 (configuration not stated)
MGC-803
  IC50: > 64 µM
PC-3
  IC50: 49.2 µM
TE-1
  IC50: > 64 µM
A549 [1]
  IC50: 10.7 µM

## CCCSc1nc(Cl)c2c(n1)N(Cc1ccccc1)C(C(=O)N1CCN(C(=O)OC(C)(C)C)CC1)N2 (configuration not stated)
MGC-803
  IC50: 32 µM
PC-3
  IC50: 47.1 µM
TE-1
  IC50: 31.2 µM
A549 [1]
  IC50: 29 µM

## CCCSc1nc(Cl)c2c(n1)N(Cc1ccccc1)C(C(=O)Nc1ccccc1)N2 (configuration not stated)
MGC-803
  IC50: 58.4 µM
PC-3
  IC50: > 64 µM
TE-1
  IC50: > 64 µM
A549 [1]
  IC50: 50.2 µM

## O=c1[nH]cc(F)c(=O)[nH]1 [FLUOROURACIL]
GES1
  IC50: 12.5 µM
MGC-803
  IC50: 8.66 µM
PC-3
  IC50: 12.3 µM
TE-1
  IC50: 16.5 µM
A549 [1]
  IC50: 13.2 µM

## CCCSc1nc(Cl)c2c(n1)N(CCOC)C(C(=O)N1CCN(C)CC1)N2 (configuration not stated)
MGC-803
  IC50: > 64 µM
PC-3
  IC50: 62.7 µM
TE-1
  IC50: > 64 µM
A549 [1]
  IC50: 61.8 µM

## CCCSc1nc(Cl)c2c(n1)N(Cc1ccccc1)C(C(=O)NCC(C)C)N2 (configuration not stated)
MGC-803
  IC50: 58.4 µM
PC-3
  IC50: > 64 µM
TE-1
  IC50: 46.6 µM
A549 [1]
  IC50: 48.2 µM

## CCCSc1nc(Cl)c2c(n1)N(CC1CCCCC1)C(C(=O)N1CCN(C)CC1)N2 (configuration not stated)
MGC-803
  IC50: > 64 µM
PC-3
  IC50: 12.8 µM
TE-1
  IC50: > 64 µM
A549 [1]
  IC50: 13.2 µM

## CCCSc1nc(Cl)c2c(n1)N(Cc1ccco1)C(C(=O)N1CCN(C)CC1)N2 (configuration not stated)
MGC-803
  IC50: 53.8 µM
PC-3
  IC50: 11.3 µM
TE-1
  IC50: 35 µM
A549 [1]
  IC50: 13.6 µM

## CCCSc1nc(Cl)c2c(n1)N(Cc1ccccc1)C(C(=O)NCCCc1ccccc1)N2 (configuration not stated)
MGC-803
  IC50: 16.9 µM
PC-3
  IC50: 12.7 µM
TE-1
  IC50: 22.9 µM
A549 [1]
  IC50: 9.43 µM

## CCCSc1nc(Cl)c2c(n1)N(Cc1cccs1)C(C(=O)N1CCN(C)CC1)N2 (configuration not stated)
MGC-803
  IC50: 62.3 µM
PC-3
  IC50: 5.02 µM
TE-1
  IC50: 39.4 µM
A549 [1]
  IC50: 6.42 µM

## CCCSc1nc(Cl)c2c(n1)N(Cc1ccccc1)C(C(=O)N1CCN(C)CC1)N2 (configuration not stated)
A549 [2]
  Activity: Dose-dependent effect
A549 [3]
  Activity: Active
A549 [4]
  Activity: Active
A549 [5]
  Activity: Dose-dependent effect
GES1
  IC50: 303 µM
A549 [6]
  Activity: 57%
A549 [7]
  Activity: Active
MGC-803
  IC50: > 64 µM
A549 [8]
  Activity: Active
A549 [9]
  Activity: Active
A549 [10]
  Activity: Active
PC-3
  IC50: 29.8 µM
A549 [11]
  Activity: Dose-dependent effect
A549 [12]
  Activity: Dose-dependent effect
[13]
  selectivity ratio: 108
A549 [14]
  Activity: Dose-dependent effect
TE-1
  IC50: 42.5 µM
A549 [15]
  Activity: Active
A549 [1]
  IC50: 2.8 µM
A549 [16]
  Activity: Active

## CCCSc1nc(Cl)c2c(n1)N(Cc1ccccc1)C(C(=O)NCCNC(=O)OC(C)(C)C)N2 (configuration not stated)
MGC-803
  IC50: > 64 µM
PC-3
  IC50: 29.7 µM
TE-1
  IC50: > 64 µM
A549 [1]
  IC50: 53.2 µM

## CCCSc1nc(Cl)c2c(n1)N(Cc1ccccc1)C(C(=O)NCCCN1CCOCC1)N2 (configuration not stated)
MGC-803
  IC50: > 64 µM
PC-3
  IC50: 45.1 µM
TE-1
  IC50: 51.1 µM
A549 [1]
  IC50: 42.2 µM

## CCCSc1nc(Cl)c2c(n1)N(CCNC(=O)OC(C)(C)C)C(C(=O)N1CCN(C)CC1)N2 (configuration not stated)
MGC-803
  IC50: 59.3 µM
PC-3
  IC50: > 64 µM
TE-1
  IC50: 51.8 µM
A549 [1]
  IC50: 12.4 µM

## CCCSc1nc(Cl)c2c(n1)N(Cc1ccccc1)C(C(=O)OCC)N2 (configuration not stated)
MGC-803
  IC50: 18.5 µM
PC-3
  IC50: 62.5 µM
TE-1
  IC50: > 64 µM
A549 [1]
  IC50: 13.8 µM

## CCCSc1nc(Cl)c2c(n1)N(Cc1ccccc1)C(C(=O)N1CCN(Cc3ccccc3)CC1)N2 (configuration not stated)
MGC-803
  IC50: 51.2 µM
PC-3
  IC50: 57.3 µM
TE-1
  IC50: 48.2 µM
A549 [1]
  IC50: 14.4 µM

## CCCSc1nc(Cl)c2c(n1)N(Cc1ccccc1)C(C(=O)N1CCOCC1)N2 (configuration not stated)
MGC-803
  IC50: 30.2 µM
PC-3
  IC50: 53.9 µM
TE-1
  IC50: 43.7 µM
A549 [1]
  IC50: > 64 µM

## CCCSc1nc(Cl)c2c(n1)N(Cc1ccccc1)C(C(=O)NCCc1ccccc1)N2 (configuration not stated)
MGC-803
  IC50: 46.9 µM
PC-3
  IC50: 41.3 µM
TE-1
  IC50: 31.2 µM
A549 [1]
  IC50: 36.7 µM
